{"source": "paper PMC8004375", "about": "“Pharmacokinetic Study of Safrole and Methyl Eugenol after Oral Administration of the Essential Oil Extracts of Asarum in Rats by GC-MS” (BioMed Research International, 2021)", "key": {"[1]": {"experiment": "Pharmacokinetic study in rat plasma after oral administration of Asarum essential oil extracts (GC-MS)", "assay_type": "in vivo, Sprague–Dawley rats", "settings": "oral Asarum extracts 20 g/kg; for MRT / Cmax / half-life / AUC(0-inf) / AUC(0-t) / Tmax / MRT last / MRT inf: male, Sprague-Dawley, in vivo; for MRT: 0−t or 0−∞ not specified, read-out: mean residence time; for Cmax: as stated in text without unit; for half-life: elimination half-life; for half-life / AUC(0-inf) / AUC(0-t) / Tmax / MRT last / MRT inf: n = 6, mean ± SD; for MRT last: read-out: MRT(0 − t); for MRT inf: read-out: MRT(0 − ∞)", "method": "The GC–MS system (Shimadzu GC-MS QP-2010 Ultrasystem) was coupled with an AOC-20i autosampler. The column used was a DB-17 capillary column (30 m × 0.25 mm × 0.25 μm film thickness). 99.99% high purity Helium was used as the carrier gas with a flow rate of 1.3 mL/min. The column temperature was programmed as follows: initial temperature 90°C, 20°C/min to 106°C, 30°C/min to 136°C, 40°C/min to 210°C, and finally 5.5°C/min to 214°C. The injection volume was 1 μL, and the injection temperature was 250°C.\nThe MS data were acquired in the electron-impact mode, and the SIM mode was used for quantification. The three characteristic ions of safrole were 162.0, 131.0, and 104.0 and that of methyl eugenols were 178.0, 163.0, and 147.0 (ions in bold fonts were used for the quantification). The transfer line temperature was set at 250°C, and the ionization source temperature was set at 230°C. The total run time was 4.5 min with a solvent delay of 3 min.\n100 μL plasma sample was incorporated with 10 μL n-hexane and 10 μL of IS (5 μg/mL) and vortexed for 30 seconds. 130 μL n-hexane was then added to the sample and vortex-mixed for 5 min. The samples were centrifuged (12,000 × g, 10 min, 4°C), and […] was injected for GC-MS analysis.\nAll animal protocols were approved by the Laboratory Animal Ethics Committee of Tianjin University Traditional Chinese Medicine (TCM-LAEC20190059). Six male Sprague–Dawley rats (body weight 240 ± 10 g) were fasted for 12 h prior to the study, with free access to water. The Asarum extracts were administered to rats orally at a dose of 20 g/kg. 0.5% CMC-Na aqueous solution was used to dissolve the Asarum extracts to a concentration of 2 g/mL suspension and stored at 4°C. Approximately 220 μL blood samples were collected from the suborbital vein into centrifuge tubes at 0, 0.08, 0.17, 0.5, 1, 2, 4, 6, 8, 10, 12, 24, 36, 48, and 60 h postadministration in rats. The plasma was separated by centrifugation at 4000 × g for 10 min immediately and frozen at -80°C until the time of analysis. The main program pharmacokinetic parameters were processed by Drug and Statistics 3.0 (Medical College of Wannan, China)."}, "[2]": {"experiment": "Stability of analytes in rat plasma (QC samples)", "assay_type": "in vitro ADME", "settings": "for Stability in plasma samples: all conditions studied: room temperature 4 h, three freeze-thaw cycles, auto-sampler 12 h, -80°C 7 days; for Measured concentration, three freeze-thaw cycles / Measured concentration, -80°C for 7 days / Measured concentration, auto-sampler for 12 h / Measured concentration, room temperature for 4 h: rat plasma, n = 6; for Measured concentration, three freeze-thaw cycles: freeze -20°C", "method": "The stability was evaluated under different condition with variable time and temperature including long-term stability (storing the QC samples at -80°C for 7 days), short-term stability (storing the QC samples at room temperature for 4 h), freeze/thaw stability (three freeze (-20°C) thaw cycles), and auto-sampler stability (incubating the spiked samples for 12 h in auto-sampler)."}, "[3]": {"settings": "International Agency for Research on Cancer classification; cited from earlier work"}, "[4]": {"settings": "high QC (spiked 12000 ng/mL safrole, 8000 ng/mL methyl eugenol)"}, "[5]": {"settings": "low QC (spiked 120 ng/mL safrole, 80 ng/mL methyl eugenol)"}, "[6]": {"settings": "medium QC (spiked 1200 ng/mL safrole, 800 ng/mL methyl eugenol)"}}}
{"smiles": "C=CCc1ccc(OC)c(OC)c1", "note": "[Methyl eugenol]", "values": [{"measurement": "MRT", "setting": "[1]", "value": "10.6 ± 0.63", "unit": "h"}, {"measurement": "Cmax", "setting": "[1]", "value": "823 ± 124", "unit": "ng/mL"}, {"measurement": "half-life", "setting": "[1]", "value": "3.67 ± 1.6", "unit": "h"}, {"measurement": "AUC(0-inf)", "setting": "[1]", "value": "15300 ± 2790", "unit": "ng·h/mL"}, {"measurement": "AUC(0-t)", "setting": "[1]", "value": "15200 ± 2760", "unit": "ng·h/mL"}, {"measurement": "Tmax", "setting": "[1]", "value": "6.67 ± 2.07", "unit": "h"}, {"measurement": "MRT last", "setting": "[1]", "value": "10.6 ± 0.63", "unit": "h"}, {"measurement": "MRT inf", "setting": "[1]", "value": "10.6 ± 0.63", "unit": "h"}, {"measurement": "completely metabolised after", "setting": "[1]", "value": 36, "unit": "h"}, {"measurement": "Stability in plasma samples", "setting": "[2]", "value": "stable"}, {"measurement": "Measured concentration, three freeze-thaw cycles", "setting": "[2]; [4]", "value": "7287.0 ± 522.7", "unit": "ng/mL"}, {"measurement": "Measured concentration, -80°C for 7 days", "setting": "[2]; [4]", "value": "7367.9 ± 638.7", "unit": "ng/mL"}, {"measurement": "Measured concentration, auto-sampler for 12 h", "setting": "[2]; [4]", "value": "7100.8 ± 230.4", "unit": "ng/mL"}, {"measurement": "Measured concentration, room temperature for 4 h", "setting": "[2]; [4]", "value": "7418.6 ± 62.9", "unit": "ng/mL"}, {"measurement": "Measured concentration, three freeze-thaw cycles", "setting": "[2]; [5]", "value": "78.5 ± 6.5", "unit": "ng/mL"}, {"measurement": "Measured concentration, -80°C for 7 days", "setting": "[2]; [5]", "value": "81.0 ± 5.2", "unit": "ng/mL"}, {"measurement": "Measured concentration, auto-sampler for 12 h", "setting": "[2]; [5]", "value": "73.9 ± 6.1", "unit": "ng/mL"}, {"measurement": "Measured concentration, room temperature for 4 h", "setting": "[2]; [5]", "value": "89.6 ± 8.8", "unit": "ng/mL"}, {"measurement": "Measured concentration, three freeze-thaw cycles", "setting": "[2]; [6]", "value": "708.5 ± 16.2", "unit": "ng/mL"}, {"measurement": "Measured concentration, -80°C for 7 days", "setting": "[2]; [6]", "value": "749.8 ± 40.7", "unit": "ng/mL"}, {"measurement": "Measured concentration, auto-sampler for 12 h", "setting": "[2]; [6]", "value": "727.7 ± 6.0", "unit": "ng/mL"}, {"measurement": "Measured concentration, room temperature for 4 h", "setting": "[2]; [6]", "value": "751.7 ± 7.8", "unit": "ng/mL"}, {"measurement": "IARC carcinogen group", "setting": "[3]", "value": "group 2B carcinogen"}]}
{"smiles": "C=CCc1ccc2c(c1)OCO2", "note": "[Safrole]", "values": [{"measurement": "MRT", "setting": "[1]", "value": "18.4 ± 0.64", "unit": "h"}, {"measurement": "Cmax", "setting": "[1]", "value": "1980 ± 267", "unit": "ng/mL"}, {"measurement": "half-life", "setting": "[1]", "value": "2.44 ± 2.72", "unit": "h"}, {"measurement": "AUC(0-inf)", "setting": "[1]", "value": "53000 ± 5260", "unit": "ng·h/mL"}, {"measurement": "AUC(0-t)", "setting": "[1]", "value": "53000 ± 5290", "unit": "ng·h/mL"}, {"measurement": "Tmax", "setting": "[1]", "value": "13 ± 1.1", "unit": "h"}, {"measurement": "MRT last", "setting": "[1]", "value": "18.4 ± 0.64", "unit": "h"}, {"measurement": "MRT inf", "setting": "[1]", "value": "18.4 ± 0.63", "unit": "h"}, {"measurement": "detectable in plasma samples after", "setting": "[1]", "value": 48, "unit": "h"}, {"measurement": "Stability in plasma samples", "setting": "[2]", "value": "stable"}, {"measurement": "Measured concentration, three freeze-thaw cycles", "setting": "[2]; [4]", "value": "12526.3 ± 331.5", "unit": "ng/mL"}, {"measurement": "Measured concentration, -80°C for 7 days", "setting": "[2]; [4]", "value": "12741.7 ± 103.1", "unit": "ng/mL"}, {"measurement": "Measured concentration, auto-sampler for 12 h", "setting": "[2]; [4]", "value": "12065.2 ± 210.7", "unit": "ng/mL"}, {"measurement": "Measured concentration, room temperature for 4 h", "setting": "[2]; [4]", "value": "12751.7 ± 38.6", "unit": "ng/mL"}, {"measurement": "Measured concentration, three freeze-thaw cycles", "setting": "[2]; [5]", "value": "137.0 ± 10.6", "unit": "ng/mL"}, {"measurement": "Measured concentration, -80°C for 7 days", "setting": "[2]; [5]", "value": "135.1 ± 11.0", "unit": "ng/mL"}, {"measurement": "Measured concentration, auto-sampler for 12 h", "setting": "[2]; [5]", "value": "136.3 ± 11.8", "unit": "ng/mL"}, {"measurement": "Measured concentration, room temperature for 4 h", "setting": "[2]; [5]", "value": "132.5 ± 12.4", "unit": "ng/mL"}, {"measurement": "Measured concentration, three freeze-thaw cycles", "setting": "[2]; [6]", "value": "1319.7 ± 21.2", "unit": "ng/mL"}, {"measurement": "Measured concentration, -80°C for 7 days", "setting": "[2]; [6]", "value": "1348.1 ± 41.4", "unit": "ng/mL"}, {"measurement": "Measured concentration, auto-sampler for 12 h", "setting": "[2]; [6]", "value": "1271.1 ± 3.3", "unit": "ng/mL"}, {"measurement": "Measured concentration, room temperature for 4 h", "setting": "[2]; [6]", "value": "1306.7 ± 15.7", "unit": "ng/mL"}, {"measurement": "IARC carcinogen group", "setting": "[3]", "value": "group 2B carcinogen"}]}
